Reference: patent US11261177B2, “Benzoxazinone derivatives useful as herbicides” (REDAG CROP PROTECTION LTD, priority 2017, dated 2022)

Columns and labels:
Assay type in all cases: in vivo
Lolium perenne [1] = assay: Post-emergence herbicidal assay, 96 cell trays, glasshouse; conditions: 168 h, Lollium, assessed 7 days after treatment, read-out: % control of plant growth; for pest or weed control at 200 g/ha: 0.2 kg/ha; for pest or weed control at 1000 g/ha: 1 kg/ha; for pest or weed control at 5000 g/ha: 5 kg/ha
Procedure: (§1) The compounds were screened at three concentrations (0.2, 1 and 5 kg/ha) against 2 weed species (Stellaria media—Chickweed and Lolium perenne). The seeds were sown in the cells of 96 cell trays (4-6 seeds per cell). For the pre-emergence assay, 75 μL of a suspension of the test compound, at the above doses, was added on top of the soil 1 day after sowing. For the post-emergence assay, the seedlings were sprayed with 200 μL of a suspension of the test compound two weeks after sowing. The formulation used is 25% acetone and 75% water/0.01% Tween 20. Each treatment was replicated three times. The plants were kept in a glasshouse (uncontrolled conditions) and assessed 7 days after treatment. A small number of compounds were tested in a first trial. A larger number of compounds were tested in a second trial. The assessment was based on the % control of plant growth in each cell.

[2] = system: Stellaria media—Chickweed; assay: as above; conditions: 168 h, assessed 7 days after treatment, read-out: % control of plant growth; for pest or weed control at 200 g/ha: 0.2 kg/ha; for pest or weed control at 1000 g/ha: 1 kg/ha; for pest or weed control at 5000 g/ha: 5 kg/ha
Procedure: as §1

Lolium perenne [3] = assay: Pre-emergence herbicidal assay, 96 cell trays, glasshouse; conditions: 168 h, Lollium, assessed 7 days after treatment, read-out: % control of plant growth; for pest or weed control at 200 g/ha: 0.2 kg/ha; for pest or weed control at 1000 g/ha: 1 kg/ha; for pest or weed control at 5000 g/ha: 5 kg/ha
Procedure: as §1

[4] = system: Stellaria media—Chickweed; assay: as above; conditions: 168 h, assessed 7 days after treatment, read-out: % control of plant growth; for pest or weed control at 200 g/ha: 0.2 kg/ha; for pest or weed control at 1000 g/ha: 1 kg/ha; for pest or weed control at 5000 g/ha: 5 kg/ha
Procedure: as §1

SMILES	pest or weed control at 200 g/ha (Lolium perenne [1]; second trial (Table 2))	pest or weed control at 1000 g/ha (Lolium perenne [1]; second trial (Table 2))	pest or weed control at 5000 g/ha (Lolium perenne [1]; second trial (Table 2))	pest or weed control at 200 g/ha ([2]; second trial (Table 2))	pest or weed control at 1000 g/ha ([2]; second trial (Table 2))	pest or weed control at 5000 g/ha ([2]; second trial (Table 2))	pest or weed control at 1000 g/ha (Lolium perenne [3]; second trial (Table 2))	pest or weed control at 5000 g/ha (Lolium perenne [3]; second trial (Table 2))	pest or weed control at 1000 g/ha ([4]; second trial (Table 2))	pest or weed control at 5000 g/ha ([4]; second trial (Table 2))	pest or weed control at 200 g/ha (Lolium perenne [3]; second trial (Table 2))	pest or weed control at 200 g/ha ([4]; second trial (Table 2))	further results
C#CCN1C(=O)C2(CC2)Oc2cc(F)c(-n3nc(C(C)(C)C)oc3=O)cc21 [Example 3, 6-(5-(tert-Butyl)-2-oxo-1,3,4-oxadiazol-3(2H)-yl)-7-fluoro-4-(prop-2-yn-1-yl)spiro[benzo[b][1,4]oxazine-2,1′-cyclopropan]-3(4H)-one]	–	–	–	–	–	–	–	–	–	–	–	–	pest or weed control at 200 g/ha (Lolium perenne [1]; first trial (Table 1)): 20 to 80%; pest or weed control at 1000 g/ha (Lolium perenne [1]; first trial (Table 1)): 80 to 100%; pest or weed control at 5000 g/ha (Lolium perenne [1]; first trial (Table 1)): 80 to 100%; pest or weed control at 200 g/ha ([2]; first trial (Table 1)): 20 to 80%; pest or weed control at 1000 g/ha ([2]; first trial (Table 1)): 20 to 80%; pest or weed control at 5000 g/ha ([2]; first trial (Table 1)): 20 to 80%; pest or weed control at 200 g/ha (Lolium perenne [3]; first trial (Table 1)): < 20%; pest or weed control at 1000 g/ha (Lolium perenne [3]; first trial (Table 1)): 20 to 80%; pest or weed control at 5000 g/ha (Lolium perenne [3]; first trial (Table 1)): 80 to 100%; pest or weed control at 200 g/ha ([4]; first trial (Table 1)): 20 to 80%; pest or weed control at 1000 g/ha ([4]; first trial (Table 1)): 80 to 100%; pest or weed control at 5000 g/ha ([4]; first trial (Table 1)): 80 to 100%
C#CCN1C(=O)C2(CC2)Oc2cc(F)c(N3C(=O)c4ccc(F)cc4C3=O)cc21 [Example 5]	20 to 80%	20 to 80%	80 to 100%	80 to 100%	80 to 100%	80 to 100%	20 to 80%	80 to 100%	80 to 100%	80 to 100%	–	–	–
C#CCN1C(=O)C2(CC2)Oc2cc(F)c(N3C(=O)c4cccc(F)c4C3=O)cc21 [Example 6]	20 to 80%	80 to 100%	80 to 100%	20 to 80%	80 to 100%	80 to 100%	< 20%	20 to 80%	20 to 80%	80 to 100%	< 20%	20 to 80%	–
C#CCN1C(=O)C2(CC2)Oc2cc(F)c(N3C(=O)c4ccccc4C3=O)cc21 [Example 7]	< 20%	20 to 80%	20 to 80%	80 to 100%	80 to 100%	80 to 100%	80 to 100%	80 to 100%	80 to 100%	80 to 100%	20 to 80%	80 to 100%	–
C#CCN1C(=O)C2(CC2)Oc2cc(F)c(N3C(=O)c4ccc(O)cc4C3=O)cc21 [Example 9]	< 20%	< 20%	20 to 80%	< 20%	< 20%	20 to 80%	< 20%	20 to 80%	< 20%	20 to 80%	< 20%	< 20%	–
C#CCN1C(=O)C2(CC2)Oc2cc(F)c(N3C(=O)c4ccc(OC)cc4C3=O)cc21 [Example 10]	< 20%	< 20%	< 20%	20 to 80%	80 to 100%	80 to 100%	< 20%	< 20%	80 to 100%	80 to 100%	< 20%	20 to 80%	–
C#CCN1C(=O)C2(CC2)Oc2cc(F)c(N3C(=O)C4CC4C3=O)cc21 (stereo not shown) [Example 13]	< 20%	< 20%	< 20%	80 to 100%	80 to 100%	80 to 100%	< 20%	20 to 80%	80 to 100%	80 to 100%	< 20%	20 to 80%	–
C#CCN1C(=O)C2(CC2)Oc2cc(F)c(N3C(=O)C=C(C(F)(F)F)C3=O)cc21 [Example 14]	< 20%	< 20%	< 20%	< 20%	< 20%	< 20%	< 20%	< 20%	< 20%	< 20%	< 20%	< 20%	–
COC(=O)C(C)N1C(=O)C2(CC2)Oc2cc(F)c(N3C(=O)c4ccc(F)cc4C3=O)cc21 (stereo not shown) [Example 16]	20 to 80%	20 to 80%	80 to 100%	80 to 100%	80 to 100%	80 to 100%	20 to 80%	20 to 80%	80 to 100%	80 to 100%	< 20%	80 to 100%	–
COC(=O)C(C)N1C(=O)C2(CC2)Oc2cc(F)c(N3C(=O)C=C(C(F)(F)F)C3=O)cc21 (stereo not shown) [Example 17]	< 20%	< 20%	< 20%	< 20%	20 to 80%	20 to 80%	20 to 80%	20 to 80%	20 to 80%	80 to 100%	< 20%	20 to 80%	–
CCOC(=O)C(C)N1C(=O)C2(CC2)Oc2cc(F)c(N3C(=O)C=C(C(F)(F)F)C3=O)cc21 (stereo not shown) [Example 20]	< 20%	< 20%	< 20%	20 to 80%	80 to 100%	80 to 100%	< 20%	< 20%	20 to 80%	20 to 80%	< 20%	< 20%	–
CCCN1C(=O)C2(CC2)Oc2cc(F)c(N3C(=O)c4ccc(F)cc4C3=O)cc21 [Example 22]	20 to 80%	20 to 80%	80 to 100%	80 to 100%	80 to 100%	80 to 100%	20 to 80%	20 to 80%	80 to 100%	80 to 100%	< 20%	80 to 100%	–
